This note sets out measurements from publication PMC6295194 (Science translational medicine, 2018).

One series addresses human NOP receptor (Homo sapiens, UniProt P41146). The class given is biochemical. The settings on record: percentage of stimulation of standard full agonist N/OFQ (100%).
Series [1] concerns rhesus monkeys. Description: Warm water tail-withdrawal assay. The following applies: Macaca mulatta, sc, read-out: antinociception ED50. The class given is in vivo, rhesus monkeys (Macaca mulatta).
Series [2] deals with rhesus monkeys. In words: Tolerance to antinociceptive effects after 4 weeks repeated administration. The settings on record: 2 injections daily for 4 weeks: morphine 1.8 mg/kg, AT-121 0.03 mg/kg.
Series [3] concerns rhesus monkeys. In words: Physiological responses by radio-telemetry. The class given is in vivo, rhesus monkeys (Macaca mulatta). The following applies: 1 mg/kg i.m., single monkey.
The test system of series [4] is rhesus monkeys. The arrangement: species or system rhesus monkeys (Macaca mulatta). The following applies: rhesus monkey, in vivo.

Structures can show the parent of a compound that is named as a salt. Some results are limits rather than exact numbers.

Chain of human NOP receptor (P41146 whole entry): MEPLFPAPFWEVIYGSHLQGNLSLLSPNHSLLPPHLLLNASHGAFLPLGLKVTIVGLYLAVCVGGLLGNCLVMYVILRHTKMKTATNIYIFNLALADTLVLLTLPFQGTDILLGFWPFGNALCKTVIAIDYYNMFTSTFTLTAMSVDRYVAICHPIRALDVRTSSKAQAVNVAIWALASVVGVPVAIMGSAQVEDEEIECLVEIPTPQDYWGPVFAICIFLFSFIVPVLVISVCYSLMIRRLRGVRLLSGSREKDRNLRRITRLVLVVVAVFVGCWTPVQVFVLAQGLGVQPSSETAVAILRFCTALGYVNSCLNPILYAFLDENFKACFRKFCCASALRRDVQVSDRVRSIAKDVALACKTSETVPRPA

By ED50 is commonly meant the dose that gives a 50% effect, or the effect in half of the subjects. Turning to `CN1CC[C@]23c4c5ccc(O)c4O[C@H]2[C@@H](O)C=C[C@H]3[C@H]1C5` [Morphine, Morphine sulfate], the “[35S]GTPγS NOP % Stim” value at human NOP receptor was found to be 5.4 ± 1%. Besides, in the series on rhesus monkeys [1], the 50% effective dose (ED50) worked out at 1 mg/kg. Besides, the “tolerance to antinociceptive effects” value in the series on rhesus monkeys [2] was “decrease in antinociceptive effects”. As to `CC(=O)Oc1ccc2c3c1O[C@H]1[C@@H](OC(C)=O)C=C[C@H]4[C@@H](C2)N(C)CC[C@@]341` [heroin, diamorphine HCl], in the series on rhesus monkeys [3], the respiratory depression result is reported as “caused respiratory depression” and the “time to respiratory depression” value is listed as below 20 min. With `O=C1CC[C@@]2(O)[C@H]3Cc4ccc(O)c5c4[C@@]2(CCN3CC2CC2)[C@H]1O5` [naltrexone, naltrexone HCl], in the series with rhesus monkeys [4], the “effect of pretreatment on reinforcing effects of oxycodone” value was “effectively attenuated the reinforcing effects of oxycodone”. The same measure, in the same setting: the value for buprenorphine HCl was “effectively attenuated the reinforcing effects of oxycodone”.
